Key:
Format in all cases: in vivo
[1] = test system: antibody forming capacities; test: Antibody forming capacity (PFC-SRBC) in mice immunosuppressed with cyclophosphamide; settings: BDF1 mice; Cyclophosphamide (22.5 mg/kg) i.p. + Saline
Protocol: Female BDF1 (8 weeks in age) mice were injected intraperitoneally with cyclophosphamide (22.5 mg/kg) 4 days before immunization with 5 x 10^8 SRBC. Samples were administered to mice i.p. from four days before immunization, every day for five days.
Mouse splenic lymphocytes producing antibody against SRBC were quantitated by using Cunningham modification method described previously.

[2] = test system: antibody forming capacities; test: Antibody forming capacity (PFC-SRBC) in mice immunosuppressed with mitomycin C; settings: BDF1 mice; Mitomycin C (1.0 mg/kg) i.p. + Saline
Protocol: Female BDF1 (8 weeks in age) mice were injected intraperitoneally with mitomycin C (1 mg/kg) from four days before immuization with 5 x 10^8 SRBC, every day for three days. Samples also were administered to mice intraperitoneally from four days before immunization, every day for five days.
At day 9, mice were sacrificed and the number of direct plaque forming cells per spleen was measured by using Cunningham modification method.

thymus = test: Dexamethasone-induced thymus atrophy in mice; settings: ddY mice; dexamethasone 1 ug/ml in drinking water, no sample; n=5
Protocol: Five week-old ddY mice(male) were used. Samples were given subcutaneously twice per day from day 0 to day 2 of the experiment. Five hours after first medication on day 0, mice were supplied with drinking water containing 1 ug/ml of dexamethasone.
At day 2, the weight of thymus of the treated mice was compared with that of the nontreated controls.

SMILES: O=P1(N(CCCl)CCCl)NCCCO1 (stereo not drawn) [Cyclophosphamide, reference compound]
- PFC-SRBC/spleen (average number of 5 mice/group) [1]: 8.46 x 10^4 PFC-SRBC/spleen

SMILES: CO[C@@]12[C@H](COC(N)=O)C3=C(C(=O)C(C)=C(N)C3=O)N1C[C@@H]1N[C@@H]12 [Mitomycin C, reference compound]
- PFC-SRBC/spleen (average number of 5 mice/group) [2]: 12.65 x 10^4 PFC-SRBC/spleen

SMILES: C[C@@H]1C[C@H]2[C@@H]3CCC4=CC(=O)C=C[C@]4(C)[C@@]3(F)[C@@H](O)C[C@]2(C)[C@@]1(O)C(=O)CO [Dexamethasone, reference compound]
- Thymus weight (thymus): 57.2 mg/mouse
